Patent US11066414B2, “Cot modulators and methods of use thereof” (Gilead Sciences, Inc., priority 2015, dated 2021)
Where two headings read alike, the source gives them in different places.

Assays:
[1] = system: TNFα; assay: Cot Monocyte TNFα Cell Based Assay
[2] = target: Human Cot (Homo sapiens (Human), UniProt P41279); assay: High Throughput Cot Biochemical Assay
[3] = Homo sapiens, Monocyte, read-out: EC50 TNF, LPS-stimulated human monocytes, TNFα
[4] = IC50 HTRF, Cot HTRF (TR-FRET) biochemical assay
[5] = read-out: EC50 TNF, LPS-stimulated human monocytes, TNFα TR-FRET
[6] = read-out: IC50 HTRF, Cot HTRF (TR-FRET KinEASE) biochemical assay, 400 μM ATP
[7] = Homo sapiens, Monocyte, read-out: EC50 TNF, LPS-stimulated human monocytes, TNFα TR-FRET
[8] = IC50 HTRF, Cot HTRF (TR-FRET KinEASE) biochemical assay, 400 μM ATP

Chain of Human Cot (P41279 30-397): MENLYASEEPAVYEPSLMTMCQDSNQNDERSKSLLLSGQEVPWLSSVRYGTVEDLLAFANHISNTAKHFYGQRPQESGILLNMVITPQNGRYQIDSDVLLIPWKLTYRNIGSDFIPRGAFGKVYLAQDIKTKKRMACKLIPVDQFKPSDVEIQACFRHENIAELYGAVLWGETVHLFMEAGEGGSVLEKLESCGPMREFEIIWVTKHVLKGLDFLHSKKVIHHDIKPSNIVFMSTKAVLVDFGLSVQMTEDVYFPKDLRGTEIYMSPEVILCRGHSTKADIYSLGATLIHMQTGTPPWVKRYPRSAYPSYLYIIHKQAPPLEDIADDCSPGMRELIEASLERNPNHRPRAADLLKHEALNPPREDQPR

Compound	EC50 [1, 3] [nM]	IC50 [2, 4] [nM]	other results
CC(C)n1cc([C@@H](Nc2cc(Cl)c3ncc(C#N)c(Nc4ccc(F)c(Cl)c4)c3c2)C2=CCOCC2)nn1 [Example 244, (S)-8-chloro-4-((3-chloro-4-fluorophenyl)amino)-6-(((3,6-dihydro-2H-pyran-4-yl)(1-isopropyl-1H-1,2,3-triazol-4-yl)methyl)amino)quinoline-3-carbonitrile]	328	4	
Cn1ccc2c([C@H](Nc3cc(Cl)c4ncc(C#N)c(NCC(C)(C)C)c4c3)c3cn(C4(C)CCC4)nn3)cccc2c1=O [Example 800, (S)-8-chloro-6-(((2-methyl-1-oxo-1,2-dihydroiso-quinolin-5-yl)(1-(1-methylcyclobutyl)-1H-1,2,3-triazol-4-yl)methyl)amino)-4-(neopentylamino)quinoline-3-carbonitrile]			EC50 [1, 5]: 25 nM; IC50 [2, 6]: 2 nM
CCN1Cc2cccc([C@H](Nc3cc(Cl)c4ncc(C#N)c(Nc5ccc(F)c(Cl)c5)c4c3)c3c[nH]nn3)c2C1 [Example 54, (S)-8-chloro-4-((3-chloro-4-fluorophenyl)amino)-6-(((2-ethylisoindolin-4-yl)(1H-1,2,3-triazol-4-yl)methyl)amino)quinoline-3-carbonitrile]	652	11	
Cn1ccc2c([C@H](Nc3cc(C#N)c4ncc(C#N)c(NCC(C)(C)C)c4c3)c3cn(C4(CF)CC4)nn3)cccc2c1=O [Example 878, (S)-6-(((1-(1-(fluoromethyl)cyclopropyl)-1H-1,2,3-triazol-4-yl)(2-methyl-1-oxo-1,2-dihydroisoquinolin-5-yl)methyl)amino)-4-(neopentylamino)quinoline-3,8-dicarbonitrile]			EC50 [1, 7]: 31 nM; IC50 [2, 8]: 2 nM
Cc1ncccc1[C@H](Nc1cc(Cl)c2ncc(C#N)c(Nc3cccc(Cl)c3F)c2c1)c1cn(C(C)C)nn1 [Example 245, (S)-8-chloro-4-((3-chloro-2-fluorophenyl)amino)-6-(((1-isopropyl-1H-1,2,3-triazol-4-yl)(2-methylpyridin-3-yl)methyl)amino)quinoline-3-carbonitrile]	125	2	
CC(C)(C)CNc1c(C#N)cnc2c(Cl)cc(N[C@H](c3cn(C4(C(F)(F)F)CC4)nn3)c3ccc(Cl)c4ncccc34)cc12 [Example 709, (S)-8-chloro-6-(((8-chloroquinolin-5-yl)(1-(1-(trifluoromethyl)cyclopropyl)-1H-1,2,3-triazol-4-yl)methyl)amino)-4-(neopentylamino)quinoline-3-carbonitrile]	187	17	
[2H][C@](Nc1cc(Cl)c2ncc(C#N)c(N[C@H](CC)c3ccccc3)c2c1)(c1ccc(F)nc1)c1cn(C(C)(C)C)nn1 [Example 118, 6-(((S)-(1-(tert-butyl)-1H-1,2,3-triazol-4-yl)(6-fluoropyridin-3-yl)methyl-d)amino)-8-chloro-4-(((R)-1-phenylpropyl)amino)quinoline-3-carbonitrile]	150	6	
Cc1nc(F)ccc1[C@H](Nc1cc(Cl)c2ncc(C#N)c(NCC(C)(C)C)c2c1)c1nnn(C2(C(F)F)CC2)c1C#N [Example 974, (S)-8-chloro-6-(((5-cyano-1-(1-(difluoromethyl)cyclopropyl)-1H-1,2,3-triazol-4-yl)(6-fluoro-2-methylpyridin-3-yl)methyl)amino)-4-(neopentylamino)quinoline-3-carbonitrile]			EC50 [1, 7]: 60 nM; IC50 [2, 8]: 11 nM
Cc1ccc([C@H](Nc2cc(Cl)c3ncc(C#N)c(Nc4ccc(F)c(Cl)c4)c3c2)c2c[nH]nn2)cn1 [Example 271, (S)-8-chloro-4-((3-chloro-4-fluorophenyl)amino)-6-(((6-methylpyridin-3-yl)(1H-1,2,3-triazol-4-yl)methyl)amino)quinoline-3-carbonitrile]	826	9	
N#Cc1cnc2c(Cl)cc(N[C@@H](c3cccnc3)c3c[nH]nn3)cc2c1Nc1cnc(F)c(F)c1 [Example 207, (S)-8-chloro-4-((5,6-difluoropyridin-3-yl)amino)-6-((pyridin-3-yl(1H-1,2,3-triazol-4-yl)methyl)amino)quinoline-3-carbonitrile]	931	5	
Cn1cc2cccc([C@H](Nc3cc(C#N)c4ncc(C#N)c(NCC(C)(C)C)c4c3)c3cn(C4(C(F)(F)F)CC4)nn3)c2n1 [Example 573, (S)-6-(((2-methyl-2H-indazol-7-yl)(1-(1-(trifluoromethyl)cyclopropyl)-1H-1,2,3-triazol-4-yl)methyl)amino)-4-(neopentylamino)quinoline-3,8-dicarbonitrile]	751	66	
CC(C)(C)CNc1c(C#N)cnc2c(C#N)cc(N[C@H](c3cn(C(CF)CF)nn3)c3cccc4ncccc34)cc12 [Example 893, (S)-6-(((1-(1,3-difluoropropan-2-yl)-1H-1H-1,2,3-triazol-4-yl)(quinolin-5-yl)methyl)amino)-4-(neopentyl-amino)quinoline-3,8-dicarbonitrile]			EC50 [1, 5]: 99 nM; IC50 [2, 6]: 4 nM
Cc1ncsc1[C@H](Nc1cc(Cl)c2ncc(C#N)c(Nc3cccc(Cl)c3F)c2c1)c1c[nH]nn1 [Example 251, (R)-8-chloro-4-((3-chloro-2-fluorophenyl)amino)-6-(((4-methylthiazol-5-yl)(1H-1,2,3-triazol-4-yl)methyl)amino)quinoline-3-carbonitrile]	347	5	
N#Cc1cnc2c(Cl)cc(N[C@H](c3cn(CCO)nn3)c3cccnc3Cl)cc2c1Nc1ccc(F)c(Cl)c1 [Example 331, (S)-8-chloro-4-((3-chloro-4-fluorophenyl)amino)-6-(((2-chloropyridin-3-yl)(1-(2-hydroxy-ethyl)-1H-1,2,3-triazol-4-yl)methyl)amino)quinoline-3-carbonitrile]	173	3	
[2H][C@](Nc1cc(Cl)c2ncc(C#N)c(Nc3ccc(OC)c(Cl)c3)c2c1)(c1ccc(F)nc1)c1cn(C2CC2)nn1 [Example 96, (S)-8-chloro-4-((3-chloro-4-methoxyphenyl)amino)-6-(((1-cyclopropyl-1H-1,2,3-triazol-4-yl)(6-fluoropyridin-3-yl)methyl-d)amino)quinoline-3-carbonitrile]	173	11	
Cc1nc(F)ccc1[C@H](Nc1cc(Cl)c2ncc(C#N)c(NCC(C)(C)C)c2c1)c1cn(C2(C(C)C)CC2)nn1 [Example 757, (S)-8-chloro-6-(((6-fluoro-2-methylpyridin-3-yl)(1-(1-isopropylcyclopropyl)-1H-1,2,3-triazol-4-yl)methyl)amino)-4-(neopentylamino)quinoline-3-carbonitrile]	60	5	
Cn1ccc2c([C@H](Nc3cc(C#N)c4ncc(C#N)c(NCC(C)(C)C(F)(F)F)c4c3)c3cn(C4(C(F)F)CC4)nn3)cccc2c1=O [Example 838, (S)-6-(((1-(1-(difluoromethyl)-cyclopropyl)-1H-1,2,3-triazol-4-yl)(2-methyl-1-oxo-1,2-dihydroisoquinolin-5-yl)methyl)amino)-4-((3,3,3-trifluoro-2,2-dimethylpropyl)-amino)quinoline-3,8-dicarbonitrile]			EC50 [1, 7]: 84 nM; IC50 [2, 8]: 3 nM
CC[C@@H](Nc1c(C#N)cnc2c(C#N)cc(N[C@H](c3cn(C4(C(F)(F)F)CC4)nn3)c3cccc4ncsc34)cc12)c1ccccc1 [Example 412, 6-(((S)-benzo[d]thiazol-7-yl(1-(1-(trifluoromethyl)-cyclopropyl)-1H-1,2,3-triazol-4-yl)methyl)amino)-4-(((R)-1-phenylpropyl)amino)quinoline-3,8-dicarbonitrile]	157	7	
CC(C)n1cc([C@@H](Nc2cc(Cl)c3ncc(C#N)c(Nc4ccc(F)c(Cl)c4)c3c2)c2ccc3ncsc3c2)nn1 [Example 61, (S)-6-((benzo[d]thiazol-6-yl(1-isopropyl-1H-1,2,3-triazol-4-yl)nielhyl)amino)-8-chloro-4-((3-chloro-4-fluorophenyl)amino)quinoline-3-carbonitrile]			EC50 ([1]; read-out: EC50 TNF, LPS-stimulated human monocytes, TNFα): 238 nM; IC50 ([2]; read-out: IC50 HTRF, Cot HTRF (TR-FRET) biochemical assay): 11 nM
CCN1Cc2ccc([C@H](Nc3cc(Cl)c4ncc(C#N)c(Nc5ccc(F)c(Cl)c5)c4c3)c3cn(C4CCN(C(C)(C)C)CC4)nn3)cc2C1 [Example 58, (S)-6-(((1-(1-(tert-butyl)piperidin-4-yl)-1H-1,2,3-triazol-4-yl)(2-ethylisoindolin-5-yl)methyl)amino)-8-chloro-4-((3-chloro-4-fluorophenyl)amino)quinoline-3-carbonitrile]	2980	72	
Cn1ccc2c([C@H](Nc3cc(C#N)c4ncc(C#N)c(NCC(C)(C)C(F)(F)F)c4c3)c3cn(C45CC(C4)C5)nn3)cccc2c1=O [Example 883, (S)-6-(((1-(bicyclo[1.1.1]pentan-1-yl)-1H-1,2,3-triazol-4-yl)(2-methyl-1-oxo-1,2-dihydroisoquinolin-5-yl)methyl)amino)-4-((3,3,3-trifluoro-2,2-dimethylpropyl)amino)quinoline-3,8-dicarbonitrile]			EC50 [1, 7]: 13 nM; IC50 [2, 8]: 1 nM
COc1cc([C@H](Nc2cc(Cl)c3ncc(C#N)c(NCC(C)(C)C)c3c2)c2cn(C3(C(F)(F)F)CC3)nn2)ccn1 [Example 941, (S)-8-chloro-6-(((2-methoxypyridin-4-yl)(1-(1-(trifluoromethyl)cyclopropyl)-1H-1,2,3-triazol-4-yl)methyl)amino)-4-(neopentylamino)quinoline-3-carbonitrile]			EC50 [1, 7]: 804 nM; IC50 [2, 8]: 64 nM
